Reference: publication PMC9705844, “Inhibitory Activity of 4-O-Benzoyl-3′-O-(OMethylsinapoyl) Sucrose from Polygala tenuifolia on Escherichia coli β-Glucuronidase” (Journal of Microbiology and Biotechnology, 2021)

Assays:
β-glucuronidase [1] = biological target: T1, β-glucuronidase (Escherichia coli, UniProt P05804); experiment: PNPG hydrolysis assay at […] nm with commercial enzyme; positive control; type: biochemical
T1 construct: gene uidA

β-glucuronidase [2] = biological target: T1, β-glucuronidase; experiment: PNPG hydrolysis assay at […] nm with commercial enzyme; Lineweaver-Burk and secondary plots (IC50 […]); type: biochemical

T1 sequence (P05804 whole entry): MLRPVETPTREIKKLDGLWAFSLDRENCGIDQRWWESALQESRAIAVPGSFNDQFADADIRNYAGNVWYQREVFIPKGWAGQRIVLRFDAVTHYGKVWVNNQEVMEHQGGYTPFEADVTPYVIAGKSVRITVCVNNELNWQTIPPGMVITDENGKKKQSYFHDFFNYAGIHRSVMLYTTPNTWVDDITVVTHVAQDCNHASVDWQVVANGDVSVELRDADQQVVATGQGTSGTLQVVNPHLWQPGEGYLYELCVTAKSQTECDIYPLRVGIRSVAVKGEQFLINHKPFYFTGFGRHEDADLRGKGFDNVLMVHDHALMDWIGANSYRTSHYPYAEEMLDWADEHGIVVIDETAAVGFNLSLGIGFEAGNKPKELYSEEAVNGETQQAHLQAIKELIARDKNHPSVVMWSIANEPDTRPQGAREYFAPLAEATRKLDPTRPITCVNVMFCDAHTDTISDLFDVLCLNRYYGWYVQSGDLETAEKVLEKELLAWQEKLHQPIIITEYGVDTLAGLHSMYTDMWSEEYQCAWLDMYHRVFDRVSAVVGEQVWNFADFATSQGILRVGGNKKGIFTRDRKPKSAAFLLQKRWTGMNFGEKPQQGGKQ

Row | Structure (SMILES) | IC50 (β-glucuronidase [1]) [µM] | Ki (β-glucuronidase [2]) [µM]
1 | O=C(O)[C@@H](O)[C@H]1OC(=O)[C@H](O)[C@H]1O [DSA, D-saccharic acid 1,4-lactone] | 19.6 ± 2.4 | –
2 | COc1cc(/C=C/C(=O)O[C@H]2[C@H](O)[C@@H](CO)O[C@@]2(CO)O[C@H]2O[C@H](CO)[C@@H](OC(=O)c3ccccc3)[C@H](O)[C@H]2O)cc(OC)c1OC [compound 3, 4-O-Benzoyl-3′-O-(O-methylsinapoyl) sucrose] | – | 13.4
